Reference: ChEMBL document CHEMBL5131489, “Linotrins: Omega-3 oxylipins featuring an E,Z,E conjugated triene motif are present in the plant kingdom and alleviate inflammation in LPS-challenged microglial cells” (2022)
Activity calls are given as the source filed them. No cut-off for these calls is given here.

Key:
BV-2 [1] = test: Antiinflammatory activity in C57BL/6 mouse microglial BV-2 cells assessed as reduction in LPS-induced IL-6 release at 30 umol/L pretreated for 3 hrs followed by LPS stimulation and measured after 24 hrs by AlphaLISA assay; format: functional; conditions: C57BL/6, BV-2, 27 h, dose 30 µmol/L
BV-2 [2] = test: Antiinflammatory activity in C57BL/6 mouse microglial BV-2 cells assessed as reduction in LPS-induced TNF-alpha release at 30 umol/L pretreated for 3 hrs followed by LPS stimulation and measured after 24 hrs by AlphaLISA assay; format: functional; conditions: C57BL/6, BV-2, 27 h, dose 30 µmol/L
BV-2 [3] = test: Antiinflammatory activity against LPS-stimulated C57BL/6 mouse microglial BV-2 cells assessed as reduction in cellular content of TNF-alpha level at 30 umol/L pretreated for 3 hrs followed by LPS stimulation and measured after 6 hrs by AlphaLISA assay; format: functional, cell-based; conditions: dose 30.0 µmol/L, time 9.0 hrs
BV-2 [4] = test: Antiinflammatory activity against LPS-stimulated C57BL/6 mouse microglial BV-2 cells assessed as reduction in cellular content of IL-6 level at 30 umol/L pretreated for 3 hrs followed by LPS stimulation and measured after 6 hrs by AlphaLISA assay; format: functional, cell-based; conditions: dose 30.0 µmol/L, time 9.0 hrs
BV-2 [5] = test: Antiinflammatory activity in C57BL/6 mouse microglial BV-2 cells assessed as reduction in LPS induced IL-6 mRNA expression level at 30 umol/L pretreated for 3 hrs followed by LPS stimulation and measured after 24 hrs by qRT-PCR analysis; format: functional, cell-based; conditions: dose 30.0 µmol/L, time 27.0 hrs
BV-2 [6] = test: Antiinflammatory activity in C57BL/6 mouse microglial BV-2 cells assessed as reduction in LPS-induced IL-6 release at 30 umol/L pretreated for 3 hrs followed by LPS stimulation and measured after 6 hrs by AlphaLISA assay; format: functional; conditions: C57BL/6, BV-2, 9 h, dose 30 µmol/L
BV-2 [7] = test: Antiinflammatory activity against LPS-stimulated C57BL/6 mouse microglial BV-2 cells assessed as reduction in cellular content of TNF-alpha level at 30 umol/L pretreated for 3 hrs followed by LPS stimulation and measured after 24 hrs by AlphaLISA assay; format: functional, cell-based; conditions: dose 30.0 µmol/L, time 27.0 hrs
BV-2 [8] = test: Antiinflammatory activity against LPS-stimulated C57BL/6 mouse microglial BV-2 cells assessed as reduction in cellular content of IL-6 level at 30 umol/L pretreated for 3 hrs followed by LPS stimulation and measured after 24 hrs by AlphaLISA assay; format: functional, cell-based; conditions: dose 30.0 µmol/L, time 27.0 hrs
BV-2 [9] = test: Antiinflammatory activity in C57BL/6 mouse microglial BV-2 cells assessed as reduction in LPS-induced TNF-alpha release at 30 umol/L pretreated for 3 hrs followed by LPS stimulation and measured after 6 hrs by AlphaLISA assay; format: functional; conditions: C57BL/6, BV-2, 9 h, dose 30 µmol/L
BV-2 [10] = test: Antiinflammatory activity against LPS-stimulated C57BL/6 mouse microglial BV-2 cells assessed as reduction in cellular content of IL-1 beta level at 30 umol/L pretreated for 3 hrs followed by LPS stimulation and measured after 24 hrs by AlphaLISA assay; format: functional, cell-based; conditions: dose 30.0 µmol/L, time 27.0 hrs
BV-2 [11] = test: Antiinflammatory activity in C57BL/6 mouse microglial BV-2 cells assessed as reduction in LPS induced IL-1 beta mRNA expression level at 30 umol/L pretreated for 3 hrs followed by LPS stimulation and measured after 24 hrs by qRT-PCR analysis; format: functional, cell-based; conditions: dose 30.0 µmol/L, time 27.0 hrs

CCC(O)/C=C/C=C\C=C\[C@H](O)CCCCCCCC(=O)O (mixture of isomers)
inhibition at 30 µM (BV-2 [1]): 30.5%
inhibition at 30 µM (BV-2 [2]): 22.7%
Activity (BV-2 [3]): Active
Activity (BV-2 [4]): Active
Activity (BV-2 [5]): Active
inhibition at 30 µM (BV-2 [6]): 20.8%
Activity (BV-2 [7]): Active
Activity (BV-2 [8]): Active
inhibition at 30 µM (BV-2 [9]): 14.1%
Activity (BV-2 [10]): Active
Activity (BV-2 [11]): Active
